Reference: patent US7557134B2, “N-(heteroaryl)-1H-indole-2-carboxamide derivatives and their use as vanilloid TRPV1 receptor ligands” (Sanofi-Aventis, priority 2005, dated 2009)

Key:
TRPV1 receptors = molecular target: T1, TRPV1 receptors (Mus musculus, UniProt Q704Y3); experiment: Test of mouse corneal irritation (capsaicin ocular instillation); assay type: in vivo; settings: 1 mg/kg po, pretreatment time t = 1 h, n = 8, 2 μl of 160 μM capsaicin
T1 construct: from tissue; host or cells: living mouse, cornea (capsaicin ocular instillation)
Procedure: Test of Mouse Corneal Irritation
The irritant nature of capsaicin is readily assessed on the cornea since this organ is one of the organs most densely innervated with C fibres. In this context, from preliminary experiments, the application of a very small amount of capsaicin (2 μl at a concentration of 160 μM) to the surface of the cornea of an animal leads to a certain number of stereotypic behavioral traits associated with irritation, which are easy to detect. Among these, the following are noted: blinking of the eye, rubbing of the instilled eye with the ipsilateral front paw, rubbing of the face with both front paws, scratching of the ipsilateral face with the hind paw. […] This aspect is moreover also normal. […]
In practice, the test product is administered orally and, with a delay (pretreatment time: t) that depends on the pharmacokinetic data, the animal receives an ocular instillation of 2 μl of a 160 μM capsaicin solution prepared as indicated above. During a 2-minute observation following the instillation, the number of times the instilled eye is rubbed with the ipsilateral front paw is recorded.
For a given animal, the percentage of protection is calculated as follows: P=100−((number of scratching actions observed/mean number of scratching actions for the group treated with the solvent)×100) […]

TRPV1 receptor = molecular target: T2, TRPV1 receptor (Rattus norvegicus, UniProt O35433); experiment: Test of inhibition of the current induced with capsaicin on rat DRGs (whole-cell patch-clamp); assay type: cell-based; settings: capsaicin response 300 nM, rat DRG neurons
T2 construct: The neurons of the DRG naturally express the TRPV1 receptor; endogenous in cells; host or cells: primary culture of newborn rat dorsal root ganglion neurons
Procedure: Test of Inhibition of the Current Induced with Capsaicin on rat DRGs
• Primary culture of rat dorsal root ganglion (DRG) cells:
The neurons of the DRG naturally express the TRPV1 receptor.
The primary cultures of newborn rat DRGs are prepared using 1-day-old rats. Briefly, after dissection, the ganglions are trypsinized and the cells dissociated by mechanical trituration. The cells are resuspended in an Eagle basal culture medium containing 10% fetal calf serum, 25 mM KCl, 2 mM glutamine, 100 μg/ml gentamicin and 50 ng/ml of NGF, and then deposited on glass slides coated with laminin (0.25×10^6 cells per slide), which are then placed in Corning 12-well dishes. The cells are incubated at 37° C. in a humidified atmosphere containing 5% CO2 and 95% air. Cytosine β-D-arabinoside (1 μM) is added 48 hours after culturing, to prevent the growth of non-neuronal cells. The slides are transferred into experimental chambers for the patch-clamp studies after 7-10 days of culturing.
The measuring chambers (volume 800 μl) containing the cell preparation are placed on the platform of an inverted microscope (Olympus IMT2) equipped with Hoffman optics (Modulation Contrast, New York) and observed at a magnification of 400×. The chambers are continuously gravity-influxed (2.5 ml/min) using a solution distributor accepting 8 inlets and whose sole outlet, consisting of a polyethylene tube (aperture 500 μm), is placed less than 3 mm from the cell under study. The “whole cell” configuration of the patch-clamp technique was used. […] The overall currents (membrane potential set at […]) are recorded with an Axopatch 1 D amplifier (Axon Instruments, Foster city, Calif.), connected to a PC running the Pclamp8 software (Axon Instrument). The current plots are recorded on paper and simultaneously digitized (sampling frequency 15 to 25 Hz) and acquired on the hard drive of the PC.
The application of a 300 nM capsaicin solution induces on the DRG cells (voltage set at −70 mV) an entering cationic current. […] The results are expressed as a percentage of inhibition of the control capsaicin response.

T1 sequence (Q704Y3 whole entry): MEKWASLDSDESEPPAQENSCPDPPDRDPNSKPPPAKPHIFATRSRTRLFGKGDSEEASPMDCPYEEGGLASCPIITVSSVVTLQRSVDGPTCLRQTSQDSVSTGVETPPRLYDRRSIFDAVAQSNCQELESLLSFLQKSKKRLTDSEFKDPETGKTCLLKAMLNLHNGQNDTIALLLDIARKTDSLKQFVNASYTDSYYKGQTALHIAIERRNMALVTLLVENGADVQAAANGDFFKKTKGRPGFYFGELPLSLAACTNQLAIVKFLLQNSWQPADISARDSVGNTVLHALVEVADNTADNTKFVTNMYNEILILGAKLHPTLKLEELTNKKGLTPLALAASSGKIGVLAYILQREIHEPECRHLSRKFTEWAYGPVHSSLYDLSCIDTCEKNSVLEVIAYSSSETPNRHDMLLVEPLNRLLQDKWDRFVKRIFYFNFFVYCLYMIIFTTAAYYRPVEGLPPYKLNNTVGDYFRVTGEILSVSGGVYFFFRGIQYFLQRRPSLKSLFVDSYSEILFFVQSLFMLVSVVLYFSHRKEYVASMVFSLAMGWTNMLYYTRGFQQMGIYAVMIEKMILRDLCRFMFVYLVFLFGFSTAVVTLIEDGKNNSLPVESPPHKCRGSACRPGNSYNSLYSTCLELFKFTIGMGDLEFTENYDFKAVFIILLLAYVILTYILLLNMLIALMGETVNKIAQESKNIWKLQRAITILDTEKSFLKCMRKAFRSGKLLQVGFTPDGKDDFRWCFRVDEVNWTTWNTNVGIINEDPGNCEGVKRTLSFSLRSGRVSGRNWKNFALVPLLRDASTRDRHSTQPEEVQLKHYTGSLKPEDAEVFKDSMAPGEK
T2 sequence (O35433 whole entry): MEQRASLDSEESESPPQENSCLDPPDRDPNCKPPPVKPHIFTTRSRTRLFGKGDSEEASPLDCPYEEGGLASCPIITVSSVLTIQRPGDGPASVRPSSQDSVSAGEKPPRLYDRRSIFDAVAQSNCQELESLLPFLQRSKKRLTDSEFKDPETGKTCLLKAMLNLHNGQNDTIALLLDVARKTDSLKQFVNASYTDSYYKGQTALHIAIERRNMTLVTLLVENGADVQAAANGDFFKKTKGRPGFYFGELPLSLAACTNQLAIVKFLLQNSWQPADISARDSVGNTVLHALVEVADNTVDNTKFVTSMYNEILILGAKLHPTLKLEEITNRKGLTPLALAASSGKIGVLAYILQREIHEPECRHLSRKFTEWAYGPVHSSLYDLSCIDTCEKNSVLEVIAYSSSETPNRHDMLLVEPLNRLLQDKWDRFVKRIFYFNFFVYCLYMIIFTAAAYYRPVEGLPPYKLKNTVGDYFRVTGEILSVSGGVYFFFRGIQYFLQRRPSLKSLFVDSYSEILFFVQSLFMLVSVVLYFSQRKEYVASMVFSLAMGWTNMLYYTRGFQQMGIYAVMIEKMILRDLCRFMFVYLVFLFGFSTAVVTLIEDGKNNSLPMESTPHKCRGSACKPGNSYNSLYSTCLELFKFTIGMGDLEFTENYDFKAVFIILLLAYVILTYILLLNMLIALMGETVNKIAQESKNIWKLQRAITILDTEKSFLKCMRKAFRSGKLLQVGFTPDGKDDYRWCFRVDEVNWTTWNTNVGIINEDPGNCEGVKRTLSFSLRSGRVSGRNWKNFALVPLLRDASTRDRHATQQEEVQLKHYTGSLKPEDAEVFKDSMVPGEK

| inhibition at 0.01 µM (TRPV1 receptor; DRG neuron, compound 10 nM) [%] | Compound | % P (percentage of protection) (TRPV1 receptors) | % inhibition in DRG patch (TRPV1 receptor; compound 1 nM) |
| --- | --- | --- | --- |
|  | O=C1CCc2ccc(NC(=O)c3cc4cc(F)ccc4n3Cc3cccc(F)c3)cc2N1 [Compound 20, N-(1H-2-oxo-3,4-dihydroquinol-7-yl)-5-fluoro-1-[(3-fluorophenyl)methyl]-1H-indole-2-carboxamide] | 26% - (1 h) | 45% (1 nM) |
| 38 | O=C(Nc1ccc2c(c1)NCCC2)c1cc2cc(F)ccc2n1Cc1cccc(F)c1 [Compound 14, N-(1,2,3,4-tetrahydroquinol-7-yl)-5-fluoro-1-[(3-fluorophenyl)methyl]-1H-indole-2-carboxamide] | 46% - (1 h) |  |
